Results taken from publication PMC10537356, “Analyzing the Material Basis of Anti-RSV Efficacy of Lonicerae japonicae Flos Based on the PK-PD Model” (Molecules, 2023).
Read-outs that look alike come from different tables or passages of the source.

Tests used:
[1] = Pharmacokinetic study of 15 LJF components in plasma of RSV-infected mice after oral LJF extract (UHPLC-QQQ MS); format: in vivo; parameters: Tmax: unit: h
Experimental: The LJF (12.0 g) were pulverized and soaked in pure water at a solid: liquid ratio of 1:200 and followed by extraction for 30 min. Then, the LJF extract was obtained by filtration, centrifugation (5000 rpm, 10 min) and concentration. Finally, the remains were freeze-dried and stored at −20 °C for subsequent pharmacokinetic assays.
All mice fasted for 1 night after being acclimatized for 7 days (no water restriction) and were randomly separated into 3 groups with 6 mice in each group. One group of healthy mice was used as the normal control group and administered physiological saline; the model group was established by intranasal infusion of RSV (TCID50 = 10^−6, 35 μL/mouse) and administered physiological saline. Members of the drug group were orally administered with LJF extract at the dose of 12 g/kg after infecting RSV. At 0.25 h, 0.5 h, 0.75 h, 1 h, 1.5 h, 2 h, 3 h,4 h, 6 h, 8 h, 10 h, 12 h and 24 h after administration blood samples (approximately 500 μL) were collected into anticoagulant tubes. The blood samples were centrifuged at 3500 rpm, 4 °C for 10 min, and the plasma (upper layer) was separated and stored at −80 °C till analysis. At the same time, the lung tissue was removed, weighed and placed in the EP tube together with five times the weight of the lung tissue in PBS solution containing 1% PMSF. Subsequently, the tissue samples were homogenized using the tissue grinder, and centrifugation to obtain a supernatant for further examination.
An amount of 50 μL IS and 2 mL acetonitrile were mixed into 200 μL plasma, after which the mixture was centrifuged (12,000 rpm, 4 °C, 10 min) and dried with nitrogen. The residue was dissolved in 70% acetonitrile containing 1% formic acid, centrifuged and subsequently the supernatant (2 μL) was injected into the UHPLC-QQQ-MS system.
Agilent 1260 series (Santa Clara, CA, USA) chromatography system was equipped with a solvent degasser, G1311B quaternary pump and G1329B automated injector. The elution was performed on a Halo® C18 column (2.1 × 100 mm, 2.7 μm) at 30 °C, and the mobile phase consisted of 0.05% formic acid in water for solvent A and 0.05% formic acid in acetonitrile for solvent B at a flow rate of 0.3 mL/min. The gradient elution was as follows: 0–30 min at 5–25% B, 30–35 min at 25–55% B, 35–45 min at 55–70% B, 45–55 min at 70–100% B, and 5 μL for analysis.
The MS/MS analysis was performed by Agilent 6470 Triple Quadrupole LC/MS (Santa Clara, CA, USA) with an ESI source. MRM was selected for the detection of the standards and internal standard with a dwell time of 2 ms. The mass spectrometry conditions were optimized as follows: Nebulizer pressure: 50 psi; capillary: positive: 4000 V, negative: 3500 V; cell acceleration voltage: 5 V; gas temp: 350 °C and flow rate at 10 L/min. The acquired data were processed and analyzed by Mass Hunter Workstation quantitative analysis.
Fifteen standards and IS were optimized for mass conditions by the positive and negative ion modes of the chromatographic system, respectively. The pharmacokinetics of 15 chemical constituents in RSV-infected mice were assessed using the UPLC-QQQ-MS/MS method.
The pharmacokinetic parameters, including maximum concentration (Cmax), time to reach Cmax (Tmax), the elimination half-life (T1/2), mean residence time (MRT), and area under the concentration–time curve (AUC) were calculated using non-compartmental analysis by Phoenix 8.1.0.3530.

RSV = settings: cited from earlier work
[2] = RSV mice plasma, oral LJF extract 12.0 g/kg
[3] = mouse, plasma, po, 12 g/kg, RSV mice plasma, oral LJF extract 12.0 g/kg, n = 6, read-out: AUC(0–t)
[4] = mouse, plasma, po, 12 g/kg, RSV mice plasma, oral LJF extract 12.0 g/kg, n = 6, read-out: AUC(0–∞)
[5] = mouse, plasma, po, 12 g/kg, RSV mice plasma, oral LJF extract 12.0 g/kg, n = 6, read-out: Cmax
[6] = mouse, plasma, po, 12 g/kg, RSV mice plasma, oral LJF extract 12.0 g/kg, n = 6, read-out: MRT(0–t)
[7] = mouse, plasma, po, 12 g/kg, RSV mice plasma, oral LJF extract 12.0 g/kg, n = 6, read-out: T1/2 (converted)
[8] = mouse, RSV mice plasma, oral LJF extract 12.0 g/kg, n = 6, read-out: Tmax
[9] = RSV mice plasma, oral LJF extract 12.0 g/kg, n = 6
[10] = mouse, in vivo, RSV mice plasma, oral LJF extract 12.0 g/kg, n = 6, read-out: AUC(0–t)
[11] = mouse, in vivo, RSV mice plasma, oral LJF extract 12.0 g/kg, n = 6, read-out: AUC(0–∞)
[12] = mouse, in vivo, RSV mice plasma, oral LJF extract 12.0 g/kg, n = 6, read-out: Cmax
[13] = mouse, in vivo, RSV mice plasma, oral LJF extract 12.0 g/kg, n = 6, read-out: MRT(0–t)
[14] = mouse, in vivo, RSV mice plasma, oral LJF extract 12.0 g/kg, n = 6, read-out: T1/2 (converted)
[15] = mouse, in vivo, RSV mice plasma, oral LJF extract 12.0 g/kg, n = 6, read-out: Tmax

Row | SMILES | shape of the concentration–time curve [1, 2] | AUC(0-t) [1, 3] | AUC(0-inf) [1, 4] | Cmax [1, 5] | MRT last [1, 6] | half-life [1, 7] | Tmax [1, 8] | also measured
1 | O=C(O)/C=C/c1ccc(O)c(O)c1 [Caffeic acid] | double or multiple peaks | 2920 ng·h/mL | 3280 ng·h/mL | 779 ± 19.2 ng/mL | 5.92 ± 0.239 h | 7.92 ± 1.1 h | 2 h | 
2 | O=C(/C=C/c1ccc(O)c(O)c1)O[C@@H]1C[C@](O)(C(=O)O)C[C@@H](O)[C@H]1O [Chlorogenic acid] | double or multiple peaks | 5190 ng·h/mL | 5900 ng·h/mL | 5600 ng/mL | 2.95 ± 0.0749 h | 26.1 ± 9.42 h | 2 h | inhibition of RSV infection (RSV; modulating TLR3, TBK1, IRF3 expression, decreasing IFN-β): could inhibit RSV infection
3 | O=C(C=Cc1ccc(O)c(O)c1)OC1C(O)CC(O)(C(=O)O)CC1O (stereo not shown) [Cryptochlorogenic acid] | double or multiple peaks | 1260 ng·h/mL | 1320 ng·h/mL | 1410 ng/mL | 2.79 ± 0.225 h | 13.5 ± 2.98 h | 2 h | 
4 | O=C(C=Cc1ccc(O)c(O)c1)OC1CC(O)(C(=O)O)CC(OC(=O)C=Cc2ccc(O)c(O)c2)C1O (stereo not shown) [Isochlorogenic acid A] | double or multiple peaks | 1070 ng·h/mL | 1450 ng·h/mL | 822 ± 53.9 ng/mL | 4.64 ± 0.289 h | 26.6 ± 4.52 h | 2 h | 
5 | O=C(C=Cc1ccc(O)c(O)c1)OC1CC(O)(C(=O)O)CC(O)C1OC(=O)C=Cc1ccc(O)c(O)c1 (stereo not shown) [Isochlorogenic acid B] | double or multiple peaks |  |  |  |  |  |  | anti-RSV effects (RSV; by inhibiting virus–cell fusion in the early stage and cell–cell fusion at the end of the RSV replication cycle): specific anti-RSV effects; AUC(0–t) [1, 9]: 1100 ng·h/mL; AUC(0–∞) [1, 9]: 1740 ng·h/mL; MRT(0–t) [1, 9]: 7.35 ± 0.170 h; T1/2 [1, 9]: 24.4 ± 2.72 h; Tmax [1, 9]: 2.00 ± 0.00 h; Cmax ([1]; RSV mice plasma, oral LJF extract 12.0 g/kg, n = 6, read-out: Cmax): 415 ± 4.69 ng/mL
6 | O=c1c(O[C@@H]2O[C@H](CO)[C@@H](O)[C@H](O)[C@H]2O)c(-c2ccc(O)c(O)c2)oc2cc(O)cc(O)c12 [Isoquercitrin] | double or multiple peaks |  |  |  |  |  |  | AUC(0-t) [1, 10]: 26.5 ± 1.19 ng·h/mL; AUC(0-inf) [1, 11]: 39.6 ± 8.47 ng·h/mL; Cmax [1, 12]: 26.5 ± 1.16 ng/mL; MRT last [1, 13]: 1.5 ± 0.0366 h; half-life [1, 14]: 2.95 ± 1.72 h; Tmax [1, 15]: 0.5 h
7 | O=c1cc(-c2ccc(O)c(O)c2)oc2cc(O)cc(O)c12 [Luteolin] |  | 20.9 ± 5.37 ng·h/mL | 21.3 ± 5.32 ng·h/mL | 19.6 ± 6.11 ng/mL | 2.12 ± 0.149 h | 1.96 ± 0.746 h | 2 h | 
8 | O=c1cc(-c2ccc(O)c(O)c2)oc2cc(O[C@@H]3O[C@H](CO)[C@@H](O)[C@H](O)[C@H]3O)cc(O)c12 [Luteoloside] | double or multiple peaks |  |  |  |  |  |  | time of first peak of plasma concentration [1, 2]: 30 min; time of second peak of plasma concentration [1, 2]: 2 h; AUC(0-t) [1, 10]: 15.8 ± 0.991 ng·h/mL; AUC(0-inf) [1, 11]: 15.9 ± 1.01 ng·h/mL; Cmax [1, 12]: 16.5 ± 1.97 ng/mL; MRT last [1, 13]: 1.5 ± 0.0928 h; half-life [1, 14]: 0.343 ± 0.0915 h; Tmax [1, 15]: 0.5 h
9 | C[C@@H]1O[C@@H](OC[C@H]2O[C@@H](Oc3c(-c4ccc(O)c(O)c4)oc4cc(O)cc(O)c4c3=O)[C@H](O)[C@@H](O)[C@@H]2O)[C@H](O)[C@H](O)[C@H]1O [Rutin] | double or multiple peaks |  |  |  |  |  |  | time of first peak of plasma concentration [1, 2]: 30 min; time of second peak of plasma concentration [1, 2]: 2 h; AUC(0-t) ([1]; mouse, in vivo, po, 12 g/kg, RSV mice plasma, oral LJF extract 12.0 g/kg, n = 6, read-out: AUC(0–t)): 31.3 ± 4.34 ng·h/mL; AUC(0-inf) ([1]; mouse, in vivo, po, 12 g/kg, RSV mice plasma, oral LJF extract 12.0 g/kg, n = 6, read-out: AUC(0–∞)): 34.3 ± 3.33 ng·h/mL; Cmax ([1]; mouse, in vivo, po, 12 g/kg, RSV mice plasma, oral LJF extract 12.0 g/kg, n = 6, read-out: Cmax): 30 ± 2.54 ng/mL; MRT last ([1]; mouse, in vivo, po, 12 g/kg, RSV mice plasma, oral LJF extract 12.0 g/kg, n = 6, read-out: MRT(0–t)): 1.51 ± 0.0291 h; half-life ([1]; mouse, in vivo, po, 12 g/kg, RSV mice plasma, oral LJF extract 12.0 g/kg, n = 6, read-out: T1/2 (converted)): 2.03 ± 1.1 h; Tmax [1, 15]: 0.5 h
10 | C=C[C@H]1[C@H](O[C@@H]2O[C@H](CO)[C@@H](O)[C@H](O)[C@H]2O)OC=C2C(=O)OC(O)C[C@H]21 (stereo partly shown) [Secologanic acid] | double or multiple peaks | 12100 ng·h/mL | 13500 ng·h/mL | 5730 ng/mL | 4.88 ± 0.0632 h | 10.9 ± 2.46 h | 2 h | 
11 | C=C[C@H]1[C@H](O[C@@H]2O[C@H](CO)[C@@H](O)[C@H](O)[C@H]2O)OC=C(C(=O)OC)[C@H]1CC(=O)O [Secoxyloganin] | double or multiple peaks |  | 27700 ng·h/mL | 4670 ng/mL | 7.19 ± 0.139 h | 8.14 ± 1.28 h | 2 h | 
12 | C=C[C@H]1[C@H](O[C@@H]2O[C@H](CO)[C@@H](O)[C@H](O)[C@H]2O)OC=C2C(=O)OCC[C@H]21 [Sweroside] |  |  |  |  |  |  |  | Tmax ([1]; mouse, in vivo, po, 12 g/kg): 2 h; AUC(0-t) ([1]; mouse, in vivo, po, 12 g/kg, AUC(0–t)): 14200 ng·h/mL; AUC(0-inf) ([1]; mouse, in vivo, po, 12 g/kg, AUC(0–∞)): 17200 ng·h/mL; Cmax ([1]; mouse, in vivo, po, 12 g/kg, Cmax): 4630 ng/mL; MRT last ([1]; mouse, in vivo, po, 12 g/kg, MRT(0–t)): 7.17 ± 0.274 h; half-life ([1]; mouse, in vivo, po, 12 g/kg, T1/2): 10.1 ± 2.25 h
13 | C=C[C@H]1[C@H](O[C@@H]2O[C@H](CO)[C@@H](O)[C@H](O)[C@H]2O)OC=C2C(=O)OCC[C@]21O [Swertiamarin] | double or multiple peaks | 21500 ng·h/mL | 22900 ng·h/mL | 2450 ng/mL | 7.37 ± 0.54 h | 5.15 ± 1.52 h | 1 h | 
